According to patent US20150045610A1, “METHOD OF MODIFYING SPERMATOGENESIS, SPERMIOGENESIS AND/OR FERTILITY IN MAMMALS” (Monell Chemical Senses Center, priority 2012, published 2015):
Values after ≈ are worked out from the molar mass of the structure shown.

Legend:
PDE 8 = settings: read-out: IC50, PDE 8; cited from earlier work
PDE 1 = settings: cited from earlier work
solubility = type: physicochemical
humanized mhT1R3 = molecular target: T1, humanized mhT1R3 (Homo sapiens, UniProt Q7RTX0, A109T/A120V/A176D/A197V/A198V/A228S/A231N/A248T/A280V/A282S/A302S/A412V/A417V/A46T/A537T/C375D/D124S/D249S/D250G/D364H/D419E/D470T/D491G/D88A/DEL352-352/DEL488-489/E172D/E199T/E203N/E217D/E356N/E45S/E481Q/E505D/E525K/E545Q/F540P/F555L/G168S/G205S/G311T/G314N/G355L/G360D/G414H/G438R/G439D/G463S/G50T/G542N/H261R/H278R/H281Y/H332P/I485M/I536F/INS376MLQNLSSG/K32Q/K339E/K422L/K494V/K86G/L173R/L245Q/L272V/L29F/L354S/L385Q/L433M/L458M/L483S/L71F/L74M/M151L/M315I/M318V/M31A/N285S/N386L/N532H/N68L/P112S/P246H/P335S/P416H/P420H/P441T/P60I/Q221E/Q257L/Q317R/Q330L/Q336H/Q359L/Q372R/Q418S/Q504K/Q531K/R123Q/R247D/R252Q/R291G/R30K/R357A/R443Q/R467V/R473T/R479Q/R482Q/R486Y/R498Q/R52N/R550K/R553A/R556P/R560K/R56Q/S251Q/S267K/S289H/S290H/S392A/S446A/S447E/S464P/S477T/S490P/S53Q/S559P/S58N/S67P/T195Q/T346A/T377L/T390I/T434S/T480L/T63N/V152I/V277A/V366M/V36I/V381L/V393T/V437A/V465T/V61P/W72L); assay: T1R3 pharmacological block with clofibrate diet (male reproduction); type: in vivo, mouse; settings: clofibrate diet 300 mg/kg body weight, line 7c and WT males
T1 construct: the extracellular domain is of mouse origin and the transmembrane and intracellular domains of human origin; mouse T1R3 extracellular domain (fusion partner replacing the human extracellular domain); expressed in transfected cells; host or cells: transgenic Line 7c mice (T1R3-/-, Gus-/-, mhT1R3+/-)
T1 sequence (Q7RTX0 with tags, fused parts or gaps L29F/R30K/M31A/K32Q/V36I/E45S/A46T/G50T/R52N/S53Q/R56Q/S58N/P60I/V61P/T63N/S67P/N68L/L71F/W72L/L74M/K86G/D88A/A109T/P112S/A120V/R123Q/D124S/M151L/V152I/G168S/E172D/L173R/A176D/T195Q/A197V/A198V/E199T/E203N/G205S/E217D/Q221E/A228S/A231N/L245Q/P246H/R247D/A248T/D249S/D250G/S251Q/R252Q/Q257L/H261R/S267K/L272V/V277A/H278R/A280V/H281Y/A282S/N285S/S289H/S290H/R291G/A302S/G311T/G314N/M315I/Q317R/M318V/Q330L/H332P/P335S/Q336H/K339E/T346A/DEL352-352/L354S/G355L/E356N/R357A/Q359L/G360D/D364H/V366M/Q372R/C375D/INS376MLQNLSSG/T377L/V381L/L385Q/N386L/T390I/S392A/V393T/A412V/G414H/P416H/A417V/Q418S/D419E/P420H/K422L/L433M/T434S/V437A/G438R/G439D/P441T/R443Q/S446A/S447E/L458M/G463S/S464P/V465T/R467V/D470T/R473T/S477T/R479Q/T480L/E481Q/R482Q/L483S/I485M/R486Y/DEL488-489/S490P/D491G/K494V/R498Q/Q504K/E505D/E525K/Q531K/N532H/I536F/A537T/F540P/G542N/E545Q/R550K/R553A/F555L/R556P/S559P/R560K limits assumed): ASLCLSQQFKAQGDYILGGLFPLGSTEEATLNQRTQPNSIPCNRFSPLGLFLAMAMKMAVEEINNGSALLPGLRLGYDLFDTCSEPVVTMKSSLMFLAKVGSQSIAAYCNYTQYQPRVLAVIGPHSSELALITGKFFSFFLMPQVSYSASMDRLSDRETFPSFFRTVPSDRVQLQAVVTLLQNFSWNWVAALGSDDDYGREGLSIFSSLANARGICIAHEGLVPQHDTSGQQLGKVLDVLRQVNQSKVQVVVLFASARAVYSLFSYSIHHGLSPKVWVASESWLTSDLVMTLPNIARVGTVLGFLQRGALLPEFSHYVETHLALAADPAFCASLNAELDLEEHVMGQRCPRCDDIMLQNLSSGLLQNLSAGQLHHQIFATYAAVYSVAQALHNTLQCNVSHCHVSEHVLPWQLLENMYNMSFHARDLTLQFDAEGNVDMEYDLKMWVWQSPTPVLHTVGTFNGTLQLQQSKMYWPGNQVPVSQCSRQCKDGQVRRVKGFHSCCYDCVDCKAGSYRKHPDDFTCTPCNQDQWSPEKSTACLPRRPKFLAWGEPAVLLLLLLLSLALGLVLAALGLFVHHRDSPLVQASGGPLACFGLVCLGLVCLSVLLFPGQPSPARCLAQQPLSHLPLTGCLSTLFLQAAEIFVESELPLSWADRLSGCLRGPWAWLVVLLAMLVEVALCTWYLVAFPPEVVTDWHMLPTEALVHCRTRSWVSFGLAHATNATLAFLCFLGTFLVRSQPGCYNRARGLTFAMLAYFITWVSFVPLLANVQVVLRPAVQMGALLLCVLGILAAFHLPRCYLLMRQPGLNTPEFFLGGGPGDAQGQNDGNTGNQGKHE
Protocol: Matched groups (six males each) of WT and line 7c mice (expressing the chimerical mhT1R3 transgene on a T1R3/α-gustducin double-null background), 3-6 months old, were fed the indicated diets for 4-6 weeks. Each genotype was tested in two groups, one on the regular diet and one on a test diet with clofibrate. An additional group of males stayed on the test diet for another 4-6 weeks, during which time they were mated with WT females to determine whether the pharmacological intervention was effective. Then the animals were allowed to recover on the regular diet for an additional 4 weeks after the end of the treatment (half-time for total sperm turnover in mice), and again were tested for their reproductive capacity, and then their tissues were analyzed. […]
We observed spermatozoa after clofibrate treatment represent cells that were able to escape the inhibition of clofibric acid, most likely due to very fast clearance and fluctuating levels in rodents. […] Therefore, we measured sperm concentration as an indicator of efficiency of the pharmacological block and to be able to determine the concentration that results in effective sterility. We analyzed testicular morphology, sperm production, sperm motility and sperm function in in vitro fertilization after feeding these animals with the lipid lowering drug clofibrate. […]

PDE 4 = settings: quantity not given; read-out: inhibition of PDE 4; cited from earlier work

For `OCCN(CCO)c1nc(N2CCCCC2)c2nc(N(CCO)CCO)nc(N3CCCCC3)c2n1` [Dipyridamole], which IC50 (PDE 8) is on record?
Its IC50 is 4 to 9 µM.

For `CCOC(=O)C1=C[C@]2(CC)CCCN3CCc4c(n1c1ccccc41)[C@@H]32` [Vinpocetine], which IC50 (PDE 1) is on record?
The IC50 was 10 µM.

Which solubility (solubility) does the source give for `CCOC(=O)C(C)(C)Oc1ccc(Cl)cc1` [clofibrate] here?
Its solubility is 5000 µg/mL (≈ 20.6 mM).

And the “effect on the health of the animals” value (humanized mhT1R3)?
The value was “no apparent effect”.
